# How the values were obtained:
# [1] = system: Salmonella typhimurium TA98; test: Ames test (reverse mutation test), pre-incubation method, strain TA98; settings: for Number of revertant colonies TA98: dose 62 μg/plate
# Experimental: (§1) Ames Test (Reverse Mutation Test)
# (§2) Metabolites 1 to 3 and Metabolites A to E were each tested herein. The purpose of this test is to evaluate the potential of each metabolite to induce reverse mutations in the standard strains of Salmonella typhimurium (TA98, TA1537, TA100, and TA1535) and Escherichia coli (WP2uvrA), in either the presence or absence of a rat liver metabolic activation system (S9 mix).
# (§3) The solvent used herein was dimethyl sulfoxide (DMSO, 100 μL/plate).
# (§4) The test was performed by the pre-incubation method with or without S9 mix. When the test was performed without S9 mix, sodium phosphate buffer solution (pH 7.4) was added.
# (§5) 0.5 mL of S9 mix or 0.5 mL of 0.1 mol/L sodium phosphate buffer solution (pH 7.4), and 0.1 mL of the bacterial culture solution were added to a test tube containing 0.1 mL of the negative control formulation (DMSO alone), the metabolite, or the positive control formulation. The mixtures were pre-incubated at 37° C. for 20 minutes while shaking. After the pre-incubation period, 2 mL of top agar were added and the mixtures were vortex-mixed and seeded onto plates. Two plates per treatment were used. Each plate was incubated at 37±1° C. for 48 hours or more and the revertant colonies were counted. The mean number of revertant colonies for each treatment plate was then calculated. The presence or absence of growth inhibition due to any antibacterial effect of the test article and precipitation of the test article was observed grossly or under a stereomicroscope. […] Evaluation was based on mean values with no statistical comparisons being used.
# [2] = system: Salmonella typhimurium TA1537; test: Ames test (reverse mutation test), pre-incubation method, strain TA1537; format: cell-based
# Experimental: as §1, §2, §3, §4, §5
# [3] = system: Salmonella typhimurium TA100; test: Ames test (reverse mutation test), pre-incubation method, strain TA100; format: cell-based
# Experimental: as §1, §2, §3, §4, §5
# Escherichia coli WP2uvrA = test: Ames test (reverse mutation test), pre-incubation method, strain WP2uvrA; format: cell-based
# From the text: as §1
# Two plates per treatment were used.
smiles,measurement,setting,value
Nc1cc(-c2cc(F)cc(OC(F)(F)F)c2)n(-c2cncc(C(F)(F)F)c2)n1 [Metabolite 3],Number of revertant colonies TA98,[1]; S9 mix +,38
same,Number of revertant colonies TA98,[1]; S9 mix −,29
same,Number of revertant colonies TA1537,"[2]; S9 mix +, dose 6.9 μg/plate",13
same,Number of revertant colonies TA1537,"[2]; S9 mix +, dose 21 μg/plate",11
same,Number of revertant colonies TA1537,"[2]; S9 mix +, dose 62 μg/plate",12
same,Number of revertant colonies TA1537,"[2]; S9 mix +, dose 185 μg/plate",12
same,Number of revertant colonies TA1537,"[2]; S9 mix +, dose 556 μg/plate",8
same,Number of revertant colonies TA1537,"[2]; S9 mix +, dose 1667 μg/plate",3
same,Number of revertant colonies TA1537,"[2]; S9 mix +, dose 5000 μg/plate",1
same,Number of revertant colonies TA1537,"[2]; S9 mix −, dose 6.9 μg/plate",8
same,Number of revertant colonies TA1537,"[2]; S9 mix −, dose 21 μg/plate",7
same,Number of revertant colonies TA1537,"[2]; S9 mix −, dose 62 μg/plate",8
same,Number of revertant colonies TA1537,"[2]; S9 mix −, dose 185 μg/plate",7
same,Number of revertant colonies TA1537,"[2]; S9 mix −, dose 556 μg/plate",2
same,Number of revertant colonies TA1537,"[2]; S9 mix −, dose 1667 μg/plate",3
same,Number of revertant colonies TA1537,"[2]; S9 mix −, dose 5000 μg/plate",2
same,Number of revertant colonies TA100,"[3]; S9 mix +, dose 6.9 μg/plate",134
same,Number of revertant colonies TA100,"[3]; S9 mix +, dose 21 μg/plate",123
same,Number of revertant colonies TA100,"[3]; S9 mix +, dose 62 μg/plate",108
same,Number of revertant colonies TA100,"[3]; S9 mix +, dose 185 μg/plate",103
same,Number of revertant colonies TA100,"[3]; S9 mix +, dose 556 μg/plate",99
same,Number of revertant colonies TA100,"[3]; S9 mix +, dose 1667 μg/plate",67
same,Number of revertant colonies TA100,"[3]; S9 mix +, dose 5000 μg/plate",43
same,Number of revertant colonies TA100,"[3]; S9 mix −, dose 6.9 μg/plate",88
same,Number of revertant colonies TA100,"[3]; S9 mix −, dose 21 μg/plate",91
same,Number of revertant colonies TA100,"[3]; S9 mix −, dose 62 μg/plate",93
same,Number of revertant colonies TA100,"[3]; S9 mix −, dose 185 μg/plate",92
same,Number of revertant colonies TA100,"[3]; S9 mix −, dose 556 μg/plate",59
same,Number of revertant colonies TA100,"[3]; S9 mix −, dose 1667 μg/plate",29
same,Number of revertant colonies TA100,"[3]; S9 mix −, dose 5000 μg/plate",12
same,Number of revertant colonies WP2uvrA,"Escherichia coli WP2uvrA; S9 mix +, dose 6.9 μg/plate",22
same,Number of revertant colonies WP2uvrA,"Escherichia coli WP2uvrA; S9 mix +, dose 21 μg/plate",22
same,Number of revertant colonies WP2uvrA,"Escherichia coli WP2uvrA; S9 mix +, dose 62 μg/plate",21
same,Number of revertant colonies WP2uvrA,"Escherichia coli WP2uvrA; S9 mix +, dose 185 μg/plate",21
same,Number of revertant colonies WP2uvrA,"Escherichia coli WP2uvrA; S9 mix +, dose 556 μg/plate",18
same,Number of revertant colonies WP2uvrA,"Escherichia coli WP2uvrA; S9 mix +, dose 1667 μg/plate",21
same,Number of revertant colonies WP2uvrA,"Escherichia coli WP2uvrA; S9 mix +, dose 5000 μg/plate",19
same,Number of revertant colonies WP2uvrA,"Escherichia coli WP2uvrA; S9 mix −, dose 6.9 μg/plate",23
same,Number of revertant colonies WP2uvrA,"Escherichia coli WP2uvrA; S9 mix −, dose 21 μg/plate",15
same,Number of revertant colonies WP2uvrA,"Escherichia coli WP2uvrA; S9 mix −, dose 62 μg/plate",23
same,Number of revertant colonies WP2uvrA,"Escherichia coli WP2uvrA; S9 mix −, dose 185 μg/plate",20
same,Number of revertant colonies WP2uvrA,"Escherichia coli WP2uvrA; S9 mix −, dose 556 μg/plate",22
same,Number of revertant colonies WP2uvrA,"Escherichia coli WP2uvrA; S9 mix −, dose 1667 μg/plate",19
same,Number of revertant colonies WP2uvrA,"Escherichia coli WP2uvrA; S9 mix −, dose 5000 μg/plate",14
"CC(C)(OCc1cc(F)cc(-c2cc(N)nn2-c2ccc(F)cc2)c1)C(F)(F)F [Metabolite A, reference compound]",potential to induce reverse mutations,"[1]; TA98, in the presence of S9 mix",had potential to induce reverse mutations
same,potential to induce reverse mutations,"[2]; TA1537, in the presence of S9 mix",had potential to induce reverse mutations
